Experimental data: patent publication EP4681700A1, “GSE24.2-DERIVED PEPTIDE AND USES THEREOF” (Consejo Superior De Investigaciones Científicas - CSIC, priority 2023, dated 2026)

Columns and labels:
RLE6TN cells [1] = assay: TERT and TERC mRNA expression by quantitative PCR in transduced cells; type: cell-based, rat; details: corrected by GAPDH, normalised to CT; for expression of Tert mRNA: Figure 3A; for expression of Terc: p<0.05, Figure 3B
Description: (§1) RNA was isolated from control cells or cells transduced with vectors expressing GFP or the GSE4 and P3 peptides. The corresponding cDNAs, which were used to determine the expression levels of the mRNA encoding TERT (Figure 3, panels A and C) and TERC (Figure 3, panels B and D) by means of quantitative PCR, were synthesised from these RNAs. Expression levels were corrected by levels corresponding to the mRNA encoding GAPDH, used as a control. Relative values were normalised with respect to values obtained for non-transduced control cells (CT). Panels A and B show the results obtained for RL6TN cells and panels C and D show the results corresponding to HaCaT cells.
For assays performed in RLE6TN cells, shown in Figures 3A and 3B, oligonucleotides corresponding to SEQ ID Nos: 23, 24 for TERT, SEQ ID Nos:27, 28 for TERC, and SEQ ID Nos:43, 44 for GAPDH were used in quantitative PCR assays.

HaCaT cells [2] = assay: TGFβ-induced expression of TGFβ receptor and MCP1 mRNA (epithelial/mesenchymal transition), quantitative PCR; type: cell-based, human; details: 5 ng/mL TGFβ, 48 of culture; for induction of expression of TGFBR2 mRNA after incubating the cells with TGFβ: Figure 4B; for induction of expression of MCP1 mRNA after incubating the cells with TGFβ: p<0.05 for P3, Figure 4B
Description: (§2) The ageing of some tissues is accompanied by fibrotic processes in which fibroblasts and myofibroblasts accumulate and in which epithelial/mesenchymal transition of epithelial cells is induced. This process occurs, for example, in idiopathic pulmonary fibrosis and in fibrosis processes as a result of skin exposure to ionising radiation. Many of these processes are mediated by the secretion of the cytokine TGFβ (transforming growth factorβ). The possible effect of the peptides on these processes was studied by incubating cells with TGFβ (R&D Systems, Bio-Techne, Minneapolis; MN, USA) and studying the expression of two mRNAs induced by this cytokine, i.e., the TGFβ receptor (TGFβR1/2) and the cytokine MCP1 (also referred to as CCL2) by means of reverse transcription of RNA and quantitative PCR.
(§3) Control cells or cells transduced with GFP expression vectors, or the GSE4 and P3 peptides were cultured in the absence or presence of a concentration of 5 ng/mL of the TGFβ factor (identified with the symbol + in Figure 4) to induce epithelial/mesenchymal transition. After 48 of culture, RNA was obtained from the cells and converted into cDNA by means of reverse transcription. The expression levels of the mRNA encoding TGFBR-1/2 (TGFβ-receptor 1 or 2) and MCP1 (monocyte chemoattractant protein-1, also referred to as CCL2: C-C motif chemokine ligand 2) were determined by quantitative PCR. The values obtained were corrected by those corresponding to the control mRNA (GAPDH) and normalised by the expression in control cells (CT).
(§4) In the assays shown in Figures 4A, for RLE6TN cells, oligonucleotides SEQ ID Nos 31 and 32 for TGFBR1, 35 and 36 for MCP1, and 43 and 44 for GAPDH were used in quantitative PCR. To obtain the results shown in Figure 4B, for HaCaT cells, oligonucleotides SEQ ID Nos: 29 and 30 for TGFBR2, SEQ ID Nos: 33 and 34 for MCP1, and SEQ ID Nos: 41y 42 for GAPDH b were used.

HaCaT cells [3] = assay: IL-6 mRNA expression by quantitative PCR in transduced cells; type: cell-based, human; details: Figure 5B
Experimental: (§5) Another important component of tissue ageing is the production of pro-inflammatory interleukins that induce the presence of basal inflammation in tissues. This inflammatory situation also occurs in some diseases of premature ageing and in response to environmental aggressions. Interleukin-6 (IL-6) is one of the main pro-inflammatory molecules and, for this reason, the possible effect of the expression of the peptides on the synthesis of this molecule was determined. In these experiments, the expression of the mRNA encoding IL-6 in cells transduced with the expression vectors of the P3 peptide and controls was determined.
(§6) RNA was obtained from RL6TN cells (Figure 5, panel A) or HaCaT cells (Figure 5, panel B) not transduced (CT) or transduced with lentiviral vectors expressing GFP or the GSE4 or P3 peptides. cDNA was synthesised from each RNA by reverse transcription and the amount of mRNA encoding IL-6 was quantified by quantitative PCR as described in Examples 2 and 3 above.
(§7) The obtained results are shown in Figures 5A (RLE6TN cells) and 5B (HaCaT cells). In the assays with RLE6TN cells, oligonucleotides with SEQ ID Nos: 39 and 40 for IL-6 and SEQ ID Nos: 43 and 44 for GAPDH were used for quantitative PCRs. In the assay performed with HaCaT cells, oligonucleotides with SEQ ID Nos: 37 and 38 for IL-6 and SEQ ID Nos: 41 and 42 for GAPDH were used.

[4] = test system: rat lung epithelial cells RL6TN; assay: yH2AX Western blot (DNA damage) in cells transduced with lentiviral peptide expression vectors; type: cell-based; details: 6 hours, relative to β-actin, normalised to CT
Experimental: In the experiment shown in Figure 1, rat lung epithelial cells RL6TN were transduced with lentiviral vectors directing the expression of the peptides under study and the corresponding controls. The presence of γH2AX was then determined by means of Western blot assays.
(§8) RL6TN cells were transduced with lentiviral vectors directing the expression of the different peptides under study (sequences derived from pCCL-hPGK.GSE4.wPREchim, SEQ ID NO. 62, in which the oligonucleotides corresponding to each peptide, shown in Table 4, SEQ ID Nos: 46-60, have been included between restriction sites Sall and Xbal) or of the GFP protein (green fluorescent protein) (PGK-EGFP sequence, SEQ ID NO. 63) as negative control. 600,000 non-transduced (control, CT) cells or cells transduced with the different lentiviral vectors were cultured for 6 hours in the absence (Panel A) or presence of 4 µg/mL of bleomycin (Merck, Burlington, MA. USA) (Panel B). After this culture period, the cells were lysed and the amount of yH2AX was determined by means of Western blot using an yH2AX-specific antibody (Cell Signalling Technology, Danvers, MA, USA). Expression of the β-actin protein as loading control was simultaneously determined using a specific antibody (Santa Cruz Biotechnology, Dallas, TX, USA). Protein expression was quantified using a luminometer. The expression of yH2AX in each sample was calculated based on the amount of β-actin. These relative values were normalised to the value corresponding to control cells not treated with bleomycin.

RLE6TN cells [5] = assay: TGFβ-induced expression of TGFβ receptor and MCP1 mRNA (epithelial/mesenchymal transition), quantitative PCR; type: cell-based, rat; details: 5 ng/mL TGFβ, 48 of culture; for induction of expression of Mcp1 mRNA after incubating the cells with TGFβ: p<0.01 for P3 and GSE4, Figure 4A; for induction of expression of Tgfbr1 mRNA after incubating the cells with TGFβ: p<0.05 for P3, Figure 4A
Description: as §2, §3, §4

HaCaT cells [6] = assay: yH2AX Western blot (DNA damage signalling) in transduced keratinocytes; type: cell-based, human; details: 6 hours
Description: as §8
DNA damage signalling studies were reproduced in human skill keratinocyte cell line HaCaT. This cell line is often used to study skin's response to environmental and pathogenic agents. HaCaT cells were transduced with lentiviral vectors which allow the expression of the P3 peptide, the GSE4 peptide, as a positive control, or GFP as a negative control. 100,000 non-transduced (CT) cells or cells transduced with the various peptides were cultured in the absence (Figure 2A) or presence of 50 µg/mL of bleomycin (Figure 2B) for 6 hours. Subsequently, the cells were lysed and the amount of yH2AX present in the extracts was determined by Western Blot in the same way as indicated for the assays in RL6TN cells described above.

HaCaT cells [7] = assay: TERT and TERC mRNA expression by quantitative PCR in transduced cells; type: cell-based, human; details: corrected by GAPDH, normalised to CT; for expression of Terc: p<0.001 for P3 only, Figure 3D; for expression of TERT: p<0.01 for both peptides, Figure 3C
Description: as §1
The results obtained for HaCaT cells are depicted in Figures 3C and 3D where oligonucleotides corresponding to SEQ ID Nos: 21, 22 for TERT, SEQ ID Nos: 25, 26 for TERC, and SEQ ID Nos: 41, 42 for GAPDH were used. […] This difference is statistically significant for both peptides in the case of TERT (**, p<0.01, ANOVA test and Dunnett's post-hoc test) and for the P3 peptide in the case of TERC (***, p<0.001, ANOVA test and Dunnett's post-hoc test).

RLE6TN cells [8] = assay: IL-6 mRNA expression by quantitative PCR in transduced cells; type: cell-based, rat; details: Figure 5A
Experimental: as §5, §6, §7

[9] = 4 µg/mL of bleomycin, Figure 1B
[10] = culture control conditions (absence of bleomycin), Figure 1A
[11] = baseline damage (absence of bleomycin), Figure 2A

| Sequence | expression of Tert mRNA (RLE6TN cells [1]) | expression of Terc (RLE6TN cells [1]) | induction of expression of TGFBR2 mRNA after incubating the cells with TGFβ (HaCaT cells [2]) | induction of expression of MCP1 mRNA after incubating the cells with TGFβ (HaCaT cells [2]) | expression of IL-6 mRNA (HaCaT cells [3]) | levels of yH2AX [4, 9] | levels of yH2AX [4, 10] | induction of expression of Mcp1 mRNA after incubating the cells with TGFβ (RLE6TN cells [5]) | induction of expression of Tgfbr1 mRNA after incubating the cells with TGFβ (RLE6TN cells [5]) | DNA damage signalling (amount of yH2AX) (HaCaT cells [6]; 50 µg/mL of bleomycin, Figure 2B) | DNA damage signalling (amount of yH2AX) (HaCaT cells [6]; [11]) | expression of Terc (HaCaT cells [7]) | expression of TERT (HaCaT cells [7]) | expression of IL-6 mRNA (RLE6TN cells [8]) |
| --- | --- | --- | --- | --- | --- | --- | --- | --- | --- | --- | --- | --- | --- | --- |
| DKPSNPSSHE [P3, GSE24.2-derived peptide of 10 amino acids, expressed in cells from a lentiviral vector] | an increase was also observed | significant increase | decreases the induction of expression of both markers | decreases the induction of expression of both markers | decreased the expression of IL-6 mRNA | causes a decrease in the levels of yH2AX | causes a decrease in the levels of yH2AX | decreases the induction of expression of both markers | decreases the induction of expression of both markers | reduces DNA damage signalling | reduces DNA damage signalling | caused an increase | caused an increase | decreased the expression of IL-6 mRNA |
| GFINLDKPSNP [GSE4, reference compound] | an increase was also observed | significant increase | also causes this inhibitory effect of the response to TGFβ | also causes this inhibitory effect of the response to TGFβ | decreased the expression of IL-6 mRNA | This decrease is greater than that caused by the expression of the GSE4 peptide | This decrease is greater than that caused by the expression of the GSE4 peptide | also causes this inhibitory effect of the response to TGFβ | also causes this inhibitory effect of the response to TGFβ | – | the reduction is greater than that caused by the expression of GSE4 | caused an increase | caused an increase | decreased the expression of IL-6 mRNA |
